In patent publication US7253194B2, “Compounds and inhibitors of phospholipases” (The University of Queensland, priority 2000, dated 2007):

Target: T1, human non-pancreatic sPLA2 (type IIa) (Homo sapiens, UniProt P14555)
T1 construct: Garvan Institute for Medical Research (provided, not a commercial vendor)
T1 sequence (P14555 21-144): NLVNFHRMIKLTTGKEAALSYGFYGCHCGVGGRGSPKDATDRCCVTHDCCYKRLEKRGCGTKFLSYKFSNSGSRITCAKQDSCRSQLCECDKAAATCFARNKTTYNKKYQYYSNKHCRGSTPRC
Assay: Assay for inhibition of human non-pancreatic sPLA2 (type IIa), mixed micelle colorimetric assay
Format: biochemical
Conditions: recombinant hIIa-PLA2; substrate diheptanoyl thio-phosphatidyl choline, DTNB detection; IC50 from Dixon plot extrapolation; read-out: IC50, inhibition of human secretary PLA2
From the text: Assay for Inhibition of Human Non-Pancreatic sPLA2 (type IIa)
A mixed nucelle colorimetric assay utilising a microtitreplate reader was used as described by Reynolds, L. J.; Hughes, L. L.; Dennis, E. A. “Analysis of human synovial fluid phospholipase A2 on short chain phosphatidylcholine-mixed micelles: Development of a spectrophotometric assay suitable for a microplate reader”. Anal Biochem. 1992, 204, 190-197.
Reagents were obtained commercially in the sPhospholipase A2 Assay Kit, Cayman Chemical Company MI USA. Buffer (25 mM Tris HCl at pH 7.5, 1 mg/mL BSA, 0.3 mM Triton X-100, 100 mM KCl, 10 mM CaCl2), substrate (diheptanoyl thio-phosphatidyl choline), DTNB (5,5′-dithiobis(2-nitrobenzoic acid)) and a 96 well plate were all provided. Recombinant hIIa-PLA2 was provided by the Garvan Institute for Medical Research. […] Standard inhibitor solutions were prepared from anhydrous DMSO. All samples were run in triplicate including the blank and control samples. Data was collected on a Molecular Devices Spectramax 250 Microplate Spectrophotometer using Softmax Pro Microplate Analysis Software v2.21. […] Thio-PC is processed by s-PLA2 and the free thiol produced is detected with DTNB (Ellman's Reagent). 5-Thio-2-nitrobenzoic acid is detected spectrophotometrically at […]. IC50's were determined by assaying inhibitors at a range of concentrations.

Question: How did the IC50 turn out when `O=C(O)CCC(Cc1ccc(OCc2ccccc2)cc1)NC(=O)CCCCCc1ccccc1` (racemic) [Compound 86, (RS)-5-(4-Benzyloxy-phenyl)-4-(6-phenyl-hexanoylamino)-pentanoic acid] was run?
Answer: 383 nM

Question: `O=C(O)CCC(Cc1ccc(OCc2ccccc2)cc1)NC(=O)CCCCCCCc1ccccc1` (racemic) [Compound 87, (RS)-5-(4-Benzyloxy-phenyl)-4-(8-phenyl-octanoylamino)-pentanoic acid] was tested. Which IC50 did it give?
Answer: 435 nM

Question: `COc1ccccc1CCCCCCC(=O)NC(CCC(=O)O)Cc1ccc(OCc2ccccc2)cc1` (racemic) [Compound 88, (RS)-5-(4-Benzyloxy-phenyl)-4-[7-(2-methoxy-phenyl)-heptanoylamino]-pentanoic acid] was tested. Which IC50 did it give?
Answer: 7400 nM

Question: With `CC(=O)Nc1cccc(CCCCCCC(=O)NC(CCC(=O)O)Cc2ccc(OCc3ccccc3)cc2)c1` (racemic) [Compound 89, (RS)-4-[7-(3-Acetylamino-phenyl)-heptanoylamino]-5-(4-benzyloxy-phenyl)-pentanoic acid] as the molecule, how does the IC50 read?
Answer: 8100 nM

Question: `O=C(O)CCC(Cc1ccc(OCc2ccccc2)cc1)NC(=O)CCCCCCc1cccc([N+](=O)[O-])c1` (racemic) [Compound 90, (RS)-5-(4-Benzyloxy-phenyl)-4-[7-(3-nitro-phenyl)-heptanoylamino]-pentanoic acid] was tested. Which IC50 did it give?
Answer: 1070 nM

Question: `O=C(O)CCC(Cc1ccc(OCc2ccccc2)cc1)NC(=O)CCCCCCc1cccnc1` (racemic) [Compound 91, (RS)-5-(4-Benzyloxy-phenyl)-4-(7-pyridin-3-yl-heptanoylamino)-pentanoic acid] was tested. Which IC50 did it give?
Answer: 1520 nM

Question: How did the IC50 turn out when `O=C(O)CCC(Cc1ccc(OCc2ccccn2)cc1)NC(=O)CCCCCCc1ccccc1` (racemic) [Compound 95, (RS)-4-(7-Phenyl-heptanoylamino)-5-[4-(pyridin-2-ylmethoxy)-phenyl]-pentanoic acid] was run?
Answer: 428 nM

Question: With `O=C(O)CCC(Cc1ccc(OCc2cccnc2)cc1)NC(=O)CCCCCCc1ccccc1` (racemic) [Compound 96, (RS)-4-(7-Phenyl-heptanoylamino)-5-[4-(pyridin-3-ylmethoxy)-phenyl]-pentanoic acid] as the molecule, how does the IC50 read?
Answer: 454 nM

Question: `O=C(O)CCC(CCc1ccccc1)NC(=O)CCCCCCc1ccccc1` (racemic) [Compound 102, (RS)-6-Phenyl-4-(7-phenyl-heptanoylamino)-hexanoic acid] was tested. Which IC50 did it give?
Answer: 1500 nM

Question: How did the IC50 turn out when `O=C(O)CC[C@@H](Cc1cn(Cc2ccccc2)c2ccccc12)NC(=O)CCCCCCc1ccccc1` [Compound 19, (S)-5-(1-Benzyl-1H-indol-3-yl)-4-(7-phenyl-heptanoylamino)-pentanoic acid] was run?
Answer: 5700 nM

Question: How did the IC50 turn out when `O=C(O)CC[C@@H](Cc1cn(CCCc2ccccc2)c2ccccc12)NC(=O)CCCCCCc1ccccc1` [Compound 20, (S)-4-(7-Phenyl-heptanoylamino)-5-[1-(3-phenyl-propyl)-1H-indol-3-yl]-pentanoic acid] was run?
Answer: 2900 nM

Question: Which IC50 does the source give for `O=C(O)CCC(Cc1cn(CCCc2ccccc2)cn1)NC(=O)CCCCCCc1ccccc1` (centres unmarked) [Compound 32, 4-(7-Phenyl-heptanoylamino)-5-[1-(3-phenyl-propyl)-1H-imidazol-4-yl]-pentanoic acid] here?
Answer: 2500 nM

Question: For `O=C(CCCCCCc1ccccc1)N[C@@H](COP(=O)(O)CCCOc1ccccc1)Cc1ccc(OCc2ccccc2)cc1` [Compound 57, (R)-(3-Phenoxy-propyl)-phosphonic acid mono-[3-(4-benzyloxy-phenyl)-2-(7-phenyl-heptanoylamino)-propyl]ester], which IC50 is on record?
Answer: 656 nM

Question: With `O=C(CCCCCCc1ccccc1)NC(COP(=O)(O)CCCO)Cc1ccc(OCc2ccccc2)cc1` (centres unmarked) [Compound 62, (3-Hydroxy-propyl)-phosphonic acid mono-[3-(4-benzyloxy-phenyl)-2-(7-phenyl-heptanoylamino)-propyl]ester] as the molecule, how does the IC50 read?
Answer: 24 nM

Question: Which IC50 does the source give for `O=C(CCCCCCc1ccccc1)N[C@@H](CCc1nnn[nH]1)Cc1ccc(OCc2ccccc2)cc1` [Compound 66, (S)-7-Phenyl-heptanoic acid [1-(4-benzyloxy-benzyl)-3-(1H-tetrazol-5-yl)-propyl]-amide] here?
Answer: 356 nM

Question: `O=C(O)CC[C@@H](CCc1ccc(Oc2ccccc2)cc1)NC(=O)CCCCCCc1ccccc1` [Compound 106, 6-(4Phenoxy-phenyl)-4R-(7-phenyl-heptanoylamino)-hexanoic acid] was tested. Which IC50 did it give?
Answer: 99 nM

Question: For `O=C(O)CC[C@@H](CCc1ccc(Oc2ccccc2)cc1)NC(=O)CCCCCCc1cccnc1` [Compound 107, 6-(4-Phenoxy-phenyl)-4R-(7-pyridin-3-yl-heptanoylamino)-hexanoic acid], which IC50 is on record?
Answer: 1700 nM
